These results are taken from patent publication US7858312B2, “Method of treating bladder and lower urinary tract syndromes” (Duke University, priority 1998, dated 2010).

One assay has as its target T1, α1dAR (Homo sapiens, UniProt P25100).
T1 construct: from tissue; host or cells: human bladder detrusor smooth muscle membranes
T1 sequence (P25100 1-572): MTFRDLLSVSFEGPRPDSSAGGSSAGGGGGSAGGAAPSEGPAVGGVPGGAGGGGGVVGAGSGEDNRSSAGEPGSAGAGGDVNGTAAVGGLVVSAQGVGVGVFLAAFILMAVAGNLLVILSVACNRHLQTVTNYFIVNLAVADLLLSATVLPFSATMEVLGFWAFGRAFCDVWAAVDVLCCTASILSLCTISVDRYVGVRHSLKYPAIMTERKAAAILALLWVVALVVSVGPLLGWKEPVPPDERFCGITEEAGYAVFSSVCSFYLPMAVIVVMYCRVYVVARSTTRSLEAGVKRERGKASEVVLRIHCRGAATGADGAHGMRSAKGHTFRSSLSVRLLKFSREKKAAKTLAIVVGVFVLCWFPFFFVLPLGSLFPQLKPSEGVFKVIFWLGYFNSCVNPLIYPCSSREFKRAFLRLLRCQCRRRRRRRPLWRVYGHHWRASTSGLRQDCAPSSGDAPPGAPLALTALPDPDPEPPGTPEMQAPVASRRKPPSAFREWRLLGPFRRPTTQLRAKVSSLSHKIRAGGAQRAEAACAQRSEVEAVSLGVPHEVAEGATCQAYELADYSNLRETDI
The assay can be described thus: BMY7378 competition binding vs [125I]HEAT in human detrusor membranes, high affinity site. The following applies: share of total binding sites with high affinity, two-site fit, n=13. The protocol: (§1) Human detrusor and rat bladder membrane preparation. Human detrusor and rat whole bladder was minced over dry ice, and suspended in cold lysis buffer (5 mM Tris HCl and 5 mM EDTA, pH 7.4) with protease inhibitors benzamidine (10 mg/ml), leupeptin (5 mg/ml), and soybean trypsin inhibitor (10 mg/ml) (Sigma Chemical Company; St. Louis, Mo.). A lysate was prepared with a Polytron PT 3000 (Brinkmann; Westbury, N.Y.) at 10,000 rpm for 10 seconds. After pelleting at 40,000×g for 15 minutes (Sorvall SM24 rotor), membranes were suspended in cold resuspension buffer (150 mM NaCl, 50 mM Tris-HCl, 5 mM EDTA, pH 7.4) with protease inhibitors, and kept on ice for immediate use (or stored at −70° C. for later use). Protein content was determined using the bicinchoninic assay (BCA) with bovine serum albumin (BSA) standards (Pierce; Rockford, Ill.).
(§2) Reaction conditions were as described above. Curves were fit with […] regression analysis using InPlot software (GraphPad).

Another assay concerns the target T2, α1aAR (Homo sapiens, UniProt P35348).
T2 construct: from tissue; host or cells: human bladder detrusor smooth muscle membranes
T2 sequence (P35348 1-466): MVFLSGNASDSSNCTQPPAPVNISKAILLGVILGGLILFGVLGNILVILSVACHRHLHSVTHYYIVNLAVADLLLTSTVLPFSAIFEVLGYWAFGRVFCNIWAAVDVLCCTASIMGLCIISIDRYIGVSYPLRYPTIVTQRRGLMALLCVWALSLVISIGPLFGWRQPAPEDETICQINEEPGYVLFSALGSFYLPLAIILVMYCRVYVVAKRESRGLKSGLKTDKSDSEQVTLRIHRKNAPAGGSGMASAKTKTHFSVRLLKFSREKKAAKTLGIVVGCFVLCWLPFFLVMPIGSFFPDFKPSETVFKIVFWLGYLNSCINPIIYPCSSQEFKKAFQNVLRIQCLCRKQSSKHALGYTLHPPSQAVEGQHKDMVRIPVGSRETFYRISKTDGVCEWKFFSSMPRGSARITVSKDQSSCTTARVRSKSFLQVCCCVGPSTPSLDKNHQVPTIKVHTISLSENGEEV
The assay can be described thus: BMY7378 competition binding vs [125I]HEAT in human detrusor membranes, low affinity site. Particulars: share of total binding sites with low affinity, two-site fit, n=13. The protocol: as §1, §2

For another assay, the target named is T3, α1bAR (Homo sapiens, UniProt P35368).
T3 construct: expressed in transfected cells; host or cells: rat-1 fibroblasts, stably transfected; membranes
T3 sequence (P35368 1-520): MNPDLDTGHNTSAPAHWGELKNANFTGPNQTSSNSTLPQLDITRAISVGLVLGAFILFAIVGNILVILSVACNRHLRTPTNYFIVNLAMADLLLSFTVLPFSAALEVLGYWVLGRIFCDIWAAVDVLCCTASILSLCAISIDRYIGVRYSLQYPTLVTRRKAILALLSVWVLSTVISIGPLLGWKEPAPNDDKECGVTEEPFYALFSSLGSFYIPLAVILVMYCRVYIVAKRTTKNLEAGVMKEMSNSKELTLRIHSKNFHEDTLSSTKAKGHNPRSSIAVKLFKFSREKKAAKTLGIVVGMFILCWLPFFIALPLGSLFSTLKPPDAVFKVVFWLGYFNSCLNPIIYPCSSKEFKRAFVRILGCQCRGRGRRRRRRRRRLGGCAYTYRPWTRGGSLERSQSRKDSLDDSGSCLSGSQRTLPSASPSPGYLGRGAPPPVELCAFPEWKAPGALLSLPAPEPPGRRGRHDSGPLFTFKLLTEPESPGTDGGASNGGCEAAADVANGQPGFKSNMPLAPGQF
The assay can be described thus: BMY7378 competition binding, membranes from rat-1 fibroblasts stably transfected with α1bAR (control). The following applies: Control α1b: rat-1 fibroblast membranes stably transfected with α1bAR; read-out: pKi α1bAR (converted).
Description: as §2

For another assay, the target named is α1ARs in human detrusor. The assay can be described thus: [125I]HEAT saturation binding in human detrusor membranes. Particulars: saturation binding isotherm, n=5. The procedure:
as §1
Radioligand binding. All mRNA and protein studies described were performed using detrusor from each patient described above (n=13). […] Dried filters were then counted in a gamma counter. Specific binding was calculated by subtracting nonspecific binding from total binding. […] Total α1AR density was then determined in each detrusor sample as described above, using a saturating concentration of [^125I]HEAT (300 pM). […]

As to `COc1ccccc1N1CCN(CCN2C(=O)CC3(CCCC3)CC2=O)CC1` [BMY7378], the “% High” value at α1dAR turned out to be 66±3.1%. Also, the “% Low” value on α1aAR was 35±3.1%. Further, the Ki on α1bAR is 7.94 µM.

As to `O=C1c2ccccc2CCC1CNCCc1ccc(O)c(I)c1` (stereo not shown) [[125I]HEAT], the Kd on α1ARs in human detrusor turned out to be 0.00013 ± 1.09e-06 µM.

One may read the Kd as the equilibrium constant for the complex coming apart. A lower Kd goes with higher affinity.
